Source: patent US12146886B2, “Methods for detecting and treating endometriosis” (The Feinstein Institutes for Medical Research, priority 2018, dated 2024)

Key:
ME-SFCs [1] = assay: Long-term study: transient cytokine exposure of ME-SFCs, decidualization 25 days after final treatment (IGFBP-1 ELISA); type: cell-based, human; conditions: for SFC decidualization capacity after transient exposure: FIG. 4A-4B
Experimental: (§1) In vitro exposure of ME-SFCs to inflammatory cytokines (e.g. TNFα) reduces decidualization capacity. […] After 24 hrs, culture supernatants were collected and IGFBP-1 protein levels were measured by ELISA. […] Twenty four hours later, the culture supernatants were collected and IGFBP-1 protein levels were measured by ELISA.

ME-SFCs [2] = assay: Acute exposure of ME-SFCs to inflammatory cytokines, then cAMP decidualization (IGFBP-1 ELISA); type: cell-based, human; conditions: TNFα 1 pg/ml-10 ng/ml; SFCs from a normal subject; 24 hours; cAMP 0.5 mM
Experimental: as §1

Substance	SFC decidualization capacity after transient exposure (ME-SFCs [1])	decidualization capacity of SFCs (ME-SFCs [2])	persistence of decidualization defects (reduced IGFBP1 production) after removal from culture (ME-SFCs [1]; TNFα 0.1-1.0 ng/ml on days 0 and 5, decidualization with cAMP alone or cAMP and medroxyprogesterone)	cell viability (SFCs)
IL-1β: inflammatory cytokine	persistent defects			
TNFα	persistent defects	dramatically reduces decidualization capacity	at least 25 days	not affected
